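How tested: cells in 96-well plates exposed to compound for 48 hours at five concentrations. The concentration for full growth arrest is given as TGI.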
Assays:
Test in all cases: NCI tumour cell line growth inhibition, 48 h
LXFL 529 NSCLC = test system: LXFL 529 NSCLC
DMS 114 small cell lung = test system: DMS 114 small cell lung
DLD-1 colon = test system: DLD-1 colon
P388/ADR leukemia = test system: P388/ADR leukemia
SN12K1 renal = test system: SN12K1 renal
P388 leukemia = test system: P388 leukemia
KM20L2 colon = test system: KM20L2 colon
RXF-631 renal = test system: RXF-631 renal

Structure (SMILES): Cc1c[n+]2c3ccccc3c3ccccc3c2s1
- TGI (LXFL 529 NSCLC): 21.6 µM
- TGI (DMS 114 small cell lung): 16.1 µM
- TGI (DLD-1 colon): > 44.5 µM

Structure (SMILES): COc1cc(C2c3cc4c(cc3[C@@H](Nc3cccc(CO)c3)C3COC(=O)[C@H]23)OCO4)cc(OC)c1O (stereo partly specified)
- TGI (P388/ADR leukemia): 1.86 µM
- TGI (DMS 114 small cell lung): 3.82 µM
- TGI (DLD-1 colon): 4.56 µM
- TGI (SN12K1 renal): 5.53 µM
- TGI (P388 leukemia): 0.369 µM

Structure (SMILES): COc1ccc(C2=NN(c3ccccc3)C[N+](c3ccc(C)cc3)=N2)cc1
- TGI (LXFL 529 NSCLC): 38.5 µM
- TGI (KM20L2 colon): > 100 µM
- TGI (DMS 114 small cell lung): 65.1 µM
- TGI (DLD-1 colon): > 100 µM

Structure (SMILES): CSCC[C@@H]1C(=O)N(C)[C@H](C(C)(C)C)N1C(=O)c1ccccc1
- TGI (KM20L2 colon): > 100 µM
- TGI (DMS 114 small cell lung): > 100 µM
- TGI (DLD-1 colon): > 100 µM
- TGI (SN12K1 renal): > 100 µM
- TGI (P388 leukemia): > 100 µM

Structure (SMILES): CC(C)C(=O)N1Cc2cc(Cl)cc(Cl)c2OC(=O)c2ccccc21
- TGI (LXFL 529 NSCLC): 34.3 µM
- TGI (KM20L2 colon): 57.8 µM
- TGI (DMS 114 small cell lung): 74 µM
- TGI (DLD-1 colon): > 100 µM
- TGI (RXF-631 renal): > 100 µM

Structure (SMILES): O=C(Nc1ccc(Cl)cc1C(F)(F)F)C(=O)C1CCCS1(=O)=O (stereo unspecified)
- TGI (LXFL 529 NSCLC): > 100 µM
- TGI (KM20L2 colon): > 100 µM
- TGI (DMS 114 small cell lung): > 100 µM
- TGI (DLD-1 colon): > 100 µM

Structure (SMILES): CCCCCCCCCCCC(=O)OC[C@H](C[As](=O)(O)O)OC(=O)CCCCCCCCCCC
- TGI (LXFL 529 NSCLC): 14 µM
- TGI (KM20L2 colon): 18.8 µM
- TGI (DMS 114 small cell lung): 4.77 µM
- TGI (DLD-1 colon): 26.7 µM

Structure (SMILES): COC(=O)c1cc(C(=O)OC)c(CC(=O)C(=O)NC2C3CC4CC(C3)CC2C4)nc1CC(=O)C(=O)NC1C2CC3CC(C2)CC1C3 (stereo unspecified)
- TGI (LXFL 529 NSCLC): > 100 µM
- TGI (KM20L2 colon): > 100 µM
- TGI (DMS 114 small cell lung): > 100 µM
- TGI (DLD-1 colon): > 100 µM

Structure (SMILES): CCC(C)C(N)C(=O)NC(CC(N)=O)C(=O)NC(CC(C)C)C(=O)NC(CCCCN)C(=O)NC(C)C(=O)NC(CC(C)C)C(=O)NC(C)C(=O)NC(C)C(=O)NC(CC(C)C)C(=O)NC(C)C(=O)NC(CCCCN)C(=O)NC(CCCCN)C(=O)NC(C(=O)NC(CC(C)C)C(N)=O)C(C)CC (stereo unspecified)
- TGI (LXFL 529 NSCLC): 28.7 µM
- TGI (KM20L2 colon): > 58.6 µM
- TGI (DMS 114 small cell lung): 28.1 µM
- TGI (DLD-1 colon): 25 µM
- TGI (RXF-631 renal): 19.5 µM

Structure (SMILES): C=CCNC(=S)N1CC(C)C(=O)Nc2cc(Cl)ccc21 (stereo unspecified)
- TGI (LXFL 529 NSCLC): > 100 µM
- TGI (KM20L2 colon): > 100 µM
- TGI (DMS 114 small cell lung): > 100 µM
- TGI (DLD-1 colon): > 100 µM

Structure (SMILES): NCCSc1cc(O)c2c(c1N)C(=O)c1ccccc1C2=O
- TGI (LXFL 529 NSCLC): > 100 µM
- TGI (KM20L2 colon): > 100 µM
- TGI (DLD-1 colon): > 100 µM
- TGI (RXF-631 renal): 97.1 µM

Structure (SMILES): Cc1[nH]c(=O)[nH]c(=O)c1/C=C/C(=O)O (tested in a mixture with another compound)
- TGI (P388/ADR leukemia): > 625 µM
- TGI (KM20L2 colon): > 625 µM
- TGI (DMS 114 small cell lung): > 625 µM
- TGI (DLD-1 colon): > 625 µM
- TGI (SN12K1 renal): > 625 µM
- TGI (P388 leukemia): > 625 µM

Structure (SMILES): C=CCN1/C(=C(\C#N)c2nc3ccccc3[nH]2)Sc2c1nc[nH]c2=O
- TGI (LXFL 529 NSCLC): > 100 µM
- TGI (KM20L2 colon): > 100 µM
- TGI (DMS 114 small cell lung): > 100 µM
- TGI (DLD-1 colon): > 100 µM

Structure (SMILES): N#Cc1ccc(Cc2ccccn2)cc1Cl
- TGI (LXFL 529 NSCLC): > 100 µM
- TGI (DMS 114 small cell lung): > 100 µM
- TGI (DLD-1 colon): > 100 µM
- TGI (RXF-631 renal): > 100 µM

Structure (SMILES): CC(CCC[C@H](C)CO)[C@H]1[C@@H](O)C(O)C2[C@@H]3C[C@@H](O)C4(O)C[C@@H](O)CC[C@]4(C)C3CC[C@@]21C (stereo partly specified)
- TGI (LXFL 529 NSCLC): > 100 µM
- TGI (KM20L2 colon): > 100 µM
- TGI (DMS 114 small cell lung): > 100 µM
- TGI (DLD-1 colon): > 100 µM

Structure (SMILES): CNC(=O)NCNC(=O)NC
- TGI (LXFL 529 NSCLC): > 100 µM
- TGI (KM20L2 colon): > 100 µM
- TGI (DMS 114 small cell lung): > 100 µM
- TGI (DLD-1 colon): > 100 µM
- TGI (RXF-631 renal): > 100 µM

Structure (SMILES): CC(=O)OC(CC1(C)C(C)CCC23COC(=O)C2=CCCC31)c1ccoc1 (stereo unspecified)
- TGI (LXFL 529 NSCLC): 38.9 µM
- TGI (KM20L2 colon): 58.7 µM
- TGI (DMS 114 small cell lung): > 100 µM
- TGI (DLD-1 colon): > 100 µM

Structure (SMILES): CCOC(=O)CC1COc2ccc3c(c21)OCO3 (stereo unspecified)
- TGI (LXFL 529 NSCLC): > 100 µM
- TGI (KM20L2 colon): > 100 µM
- TGI (DMS 114 small cell lung): > 100 µM
- TGI (DLD-1 colon): > 100 µM

Structure (SMILES): CCOC(=O)C(=O)C=P(c1ccccc1)(c1ccccc1)c1ccccc1
- TGI (LXFL 529 NSCLC): > 100 µM
- TGI (KM20L2 colon): > 100 µM
- TGI (DMS 114 small cell lung): > 100 µM
- TGI (DLD-1 colon): > 100 µM
- TGI (RXF-631 renal): > 100 µM

Structure (SMILES): COc1cc2c(c(OC)c1OC)-c1ccc(SC)c(=O)cc1C(CC(=O)Oc1cccc([N+](=O)[O-])c1)C2 (stereo unspecified)
- TGI (LXFL 529 NSCLC): > 100 µM
- TGI (KM20L2 colon): 2.06 µM
- TGI (DMS 114 small cell lung): 3.95 µM
- TGI (DLD-1 colon): > 56.9 µM
- TGI (RXF-631 renal): 12.8 µM

Structure (SMILES): COc1cc2c3cc1Oc1c(O)c(OC)cc4c1C(Cc1ccc(O)c(c1)Oc1ccc(cc1)CC3N(C)CC2)N(C)CC4 (stereo unspecified)
- TGI (LXFL 529 NSCLC): 17.1 µM
- TGI (KM20L2 colon): 17.4 µM
- TGI (DMS 114 small cell lung): 44.8 µM
